Two compounds from patent US20250120975A1, “INTEGRIN INHIBITORS FOR TREATMENT OF PRIMARY SCLEROSING CHOLANGITIS” (Pliant Therapeutics, Inc., priority 2023, published 2025) can be followed below.

The experiment relates to PCLivS from human liver tissue with biliary fibrosis (PSC, PBC). In words: Fibrotic gene expression (NanoString) in precision cut liver slices. It counts as cell-based. The following applies: PCLivS from a single PSC liver, 2 days. An excerpt: A human liver tissue explant was obtained from a PSC patient undergoing liver transplantation.
Slicing: To slice, 8-mm cores were punctured from the liver tissue and were stored in ice cold UW solution until slicing. A tissue core was glued onto the center of the plunger of the specimen syringe for slicing. The core was embedded in 2% low gelling temperature agarose made up in milliQ water. The thickness of the slice was adjusted to 400 μm and was sectioned into oxygenated KHB occurs. The slices were stored in cold UW solution on ice until all slices were cut.
Culture: The compounds were diluted to 1000× concentration in 100% DMSO. The compounds were diluted in a medium with a final concentration of 0.1% DMSO before transferring the slices and making a fresh medium for each 24-H medium change. Before being used for slice culture, all media was equilibrated in the incubator at culture conditions for 30 minutes. After all slices have been cut, all slices were transferred to wells prefilled with oxygenated, warmed, and equilibrated WEGG. The slices were incubated for 1 hour in the incubator at a temperature of 37° C., 5% CO2, 80% 02, 100% humidity on shaking platform set at 55 rpm. After this one-hour recovery, the slices were transferred to wells prefilled with oxygenated, warmed, and equilibrated WEGG with appropriate treatments. The slices were distributed into the treatment groups to account for inter-core variability. The slices were cultured at 37° C., 80% 02, 5% CO2, 100% humidity on shaking platform set at 55 rpm. The medium was changed after 24 hours.
The slices were removed from the well and rinsed in PBS. Excess liquid was removed. The slices were transferred to a microtube pooling all three slices from the same treatment into one tube. The pooled slices were snap frozen in liquid nitrogen and placed on dry ice until all samples were collected and then transferred to −80° C. for storage. For media collection, 140 μL of medium was pooled from each well within a treatment group and transferred to a 96-well Axygen plate. After sealing the plate, spin down occurred at 4000×g for 10 minutes at 4° C. Then, 130 μL aliquots were transferred into 3 new plates. The plates were sealed and stored at −80° C.
(S)-4-((2-methoxyethyl)(4-(5,6,7,8-tetrahydro-1,8-naphthyridin-2-yl)butyl)amino)-2-(quinazolin-4-ylamino)butanoic acid was tested at 100 nM, 1 μM, and 10 μM. OCA, an FXR agonist in clinical trials for PSC, was used at 250 nM and 2.5 μM reflecting Cmax levels observed in clinical trials. An ALK5 inhibitor (R268712) was used at 1 μM (400 times its IC50 per manufacturer) to target max inhibition of the ALK5 receptor.
Methods: Lysis buffer was made with one third RLT buffer in RNAse-free water and 2 mg/mL proteinase K. About 100-200 μL lysis buffer was added to each pool of 3 liver slices. Samples were incubated at 55° C. in the bead bath for 2 hours and 45 minutes, vortexing every 30 minute. Samples were centrifuged and the supernatant aliquoted in 15 μL aliquots into 96-well Axygen plates.
Methods: nCounter PlexSet was run according to standard protocol. Briefly, probe A and probe B were diluted with TE-tween to Working Probe Pools and mixed with hybridization buffer. This master mix was added to the A-H PlexSets and mixed. Each PlexSet was added across a row to a 96 well qPCR plate and proteinase K was added to a final concentration of 2 mg/mL. Lysate from samples was added to appropriate wells and mixed. The plate was sealed, spun, and placed in thermocycler at 67° C. for 16 hours. Hybridized samples were pooled down columns and 35 μL were loaded on a Sprint Cartridge and run on the nCounter Sprint. Data analysis was performed in nSolver using background thresholding based on negative controls, positive control normalization, reference sample normalization and normalization to housekeeping genes (GUSB, HPRT1, POLR1B, RPLP0, SRFS4, and/or UBC). […]

On to `Cc1cccc(-c2[nH]ncc2-c2ccc(F)c(-c3cnn(CCO)c3)c2)n1` [Alk5 Inh., reference compound], for which, where the note is “1 μM”, the “% Inhibition of expression COL1A1” value was 79% and the “% Inhibition of expression COL1A2” value was determined as 46%.
In the case of `CC[C@H]1[C@@H](O)[C@@H]2[C@H](CC[C@]3(C)[C@@H]([C@H](C)CCC(=O)O)CC[C@@H]23)[C@@]2(C)CC[C@@H](O)C[C@@H]12` [OCA, obeticholic acid, reference compound], the “% Inhibition of expression COL1A1” value turned out to be 44% (250 nM) and 35% (2.5 μM). The “% Inhibition of expression COL1A2” value runs as follows: (250 nM) 19%; (2.5 μM) 15%.
